Data taken from publication PMC6432920 (Journal of medicinal chemistry, 2017).
Like-named read-outs stand apart in the source and are kept apart here.

Tests used:
[1] = human liver microsomes; cited from earlier work
[2] = one dose treatment, nude mice bearing MCF-7 xenograft tumors; cited from earlier work

For `COc1ccc2c(c1)NC(=O)CN2c1nc(C)nc2ccccc12` [Compound 2, 7-Methoxy-4-(2-methylquinazolin-4-yl)-3,4-dihydroquinoxalin-2(1H)-one], the “metabolic stability in vitro t1/2” value [1] is listed as 55 min, the lethal dose [2] is listed as 4 mg/kg and the body weight end (0.25 mg/kg iv Q5D × 4) is listed as 25.96 ± 1.54 g. The body weight start (0.25 mg/kg iv Q5D × 4) was 22.44 ± 1.27 g, the body weight end (0.5 mg/kg iv Q5D × 4) was 23.85 ± 1.57 g and the body weight start (0.5 mg/kg iv Q5D × 4) was 22.28 ± 1.33 g. For the same molecule, the body weight end (1.0 mg/kg iv Q5D × 4) was 20.50 ± 3.27 g, the body weight start (1.0 mg/kg iv Q5D × 4) was 22.13 ± 1.24 g and the signs of toxicity (mice, 1.0 mg/kg) was “without obvious signs of toxicity”.
